Measured values taken from article PMC6273868, “High-Resolution α-Glucosidase Inhibition Profiling Combined with HPLC-HRMS-SPE-NMR for Identification of Antidiabetic Compounds in Eremanthus crotonoides (Asteraceae)” (Molecules, 2016).
Entries after “also recorded” stand apart in the source; their conditions may differ.

What was measured:
yeast α-glucosidase = assay: α-glucosidase inhibition assay, dilution series for IC50 determination (PNPG substrate); format: biochemical, Saccharomyces cerevisiae; conditions: for IC50: isolated compounds, means ± SD of triplicate experiments
Method: (§1) Methanol and ethyl acetate used for extraction were purchased from Tedia (Fairfield, OH, USA). Formic acid was obtained from Merck (Darmstadt, Germany) and water was prepared by a deionization and 0.22-µm membrane filtration system (Milipore, Billerica, MA, USA).
(§2) Microfractionation was performed with an Agilent 1200 series instrument (Santa Clara, CA, USA) consisting of a G1316A quartenary pump, a G1322A degasser, a G1316A thermostatted column compartment, a G1315C photodiode-array detector, a G1364C fraction collector, and a G1367C high-performance auto sampler, controlled by Agilent ChemStation ver. B.03.02 software. The columns used were a Phenomenex C18(2) Luna (150 mm × 4.6 mm, 3 μm particle size, 100 Å pore size) and a Phenomenex PFP Kinetex (150 mm × 4.6 mm, 2.6 μm particle size, 100 Å pore size). For fractionation of the crude defatted ethyl acetate extract of E. crotonoides (injection: 4 μL; concentration: 100 mg/mL) the temperature was maintained at 40 °C and the flow rate at 0.5 mL/min. The solvents were a binary gradient mixture of water–acetonitrile (95:5 v/v) as eluent A and acetonitrile–water (95:5 v/v) as eluent B, both acidified with 0.1% formic acid. The following elution profile was used: 0 min, 10% B; 35 min, 26% B; 50 min, 35% B; 60 min, 40% B; 90 min, 100% B, and the eluate from 3 to 78 min was fractionated into four 96-well microplates, leading to a resolution of 4.7 data points per min. For fractionation of Fr.2 (injection: 2 μL; concentration: 33 mg/mL) the same conditions as described above were used, but with methanol and the PFP column instead of acetonitrile and the C18 column. The eluate from 8 to 30 min was fractionated into one 96-well microplate (resolution: 4.0 data points per min) using the following gradient: 0 min, 50% B; 3 min, 50% B; 34 min, 59% B; 35 min 100% B; 38 min, 100% B. The collected fractions were evaporated to dryness using a Savant SPD121P speed vacuum concentrator coupled with a RVT400 refrigerated vapor trap and an OFP-400 oil free pump (Holbrook, NY, USA). The α-glucosidase inhibitiory activity of the fractions was determined according to the previously described procedure. Briefly, the content of each well was dissolved in 100 μL of 0.1 M phosphate buffer containing 10% of DMSO and added 80 μL of the α-glucosidase solution. After incubation at 28 °C for 10 min the reaction was initiated by addition of 20 μL of PNPG (10 mM in phosphate buffer) (final volume = 200 μL and final DMSO = 5%). The cleavage product of PNPG was monitored at 405 nm for 35 min using a Multiskan FC microplate photometer (Thermo Scientific, Waltham, MA, USA) and the percentage enzyme inhibition was calculated. The α-glucosidase inhibition of each well was plotted at their respective retention times underneath the HPLC chromatogram to obtain a high-resolution biochromatogram.
Preparative-scale fractionation was performed using an Agilent 1100 series instrument equipped with a multiple wavelength detector, an autosampler and two preparative-scale solvent delivery pumps. The column used was a Phenomenex C18(2) Luna (250 mm × 21.2 mm, 5 μm particle size, 100 Å pore size) and the gradient method was as follows: 0 min, 20% B; 27 min, 35% B; 37 min, 40% B; 40 min, 100% B; 46 min, 100% B; 47 min, 20% B; 52 min, 20% B using a binary mixture of water–acetonitrile (95:5 v/v) as eluent A and acetonitrile–water (95:5 v/v) as eluent B, both acidified with 0.1% formic acid.

α-glucosidase [1] = assay: High-resolution α-glucosidase inhibition profiling (biochromatogram) of HPLC microfractions; format: biochemical, Saccharomyces cerevisiae; parameters: α-glucosidase inhibitory activity of peak in biochromatogram / α-glucosidase inhibitory activity, direct readout from the biochromatogram: concentration or dose not given beside the values; conditions: for α-glucosidase inhibitory activity of peak in biochromatogram: microfractionation of fraction Fr.2 on PFP column; for α-glucosidase inhibitory activity of peak in biochromatogram / α-glucosidase inhibitory activity, direct readout from the biochromatogram: relative inhibition, quantity unknown; for α-glucosidase inhibitory activity, direct readout from the biochromatogram: biochromatogram of crude defatted extract; for α-glucosidase inhibitory activity as seen in the biochromatogram of E. crotonoides extract (in words): crude defatted ethyl acetate extract, C18 column
Method: Thus, 0.4 mg of the extract of E. crotonoides was subjected to analytical-scale reversed-phase HPLC, and the eluate in the retention time range from 3.0 to 78.0 min was fractionated into four 96-well microplates, yielding a resolution of 4.7 data points/min (the first column of each microplate was reserved for blanks and controls). This was followed by evaporation of the HPLC eluate from all wells, reconstitution in buffer containing 10% DMSO, and assessment of the α-glucosidase inhibitory activity of all wells (final concentration of DMSO during assay = 5%). The inhibitory activities (calculated as percentage inhibition) were plotted against the retention time from the microfractionation to give the high-resolution α-glucosidase inhibition profile (biochromatogram) shown in Figure 1. The HPLC chromatogram at 254 nm is shown with the blue line (top) and the high-resolution α-glucosidase inhibition profile shown with the red line at the bottom. The high resolution of the biochromatogram allows direct correlation of HPLC peaks and peaks in the biochromatogram—thereby pinpointing peaks corresponding to compounds with α-glucosidase inhibitory activity.
as §1
as §2, with “The α-glucosidase inhibition of each well was plotted at their respective retention times underneath the HPLC chromatogram to obtain a high-resolution biochromatogram.” left out

α-glucosidase [2] = molecular target: α-glucosidase; parameters: method as in PMID 25172103; conditions: known as a weak inhibitor; cited from earlier work

Row | SMILES | IC50 (yeast α-glucosidase) [µM] | α-glucosidase inhibitory activity of peak in biochromatogram (α-glucosidase [1]) [%] | α-glucosidase inhibitory activity as seen in the biochromatogram of E. crotonoides extract (in words) (α-glucosidase [1]) | also measured
1 | COc1c(-c2ccc(O)c(O)c2)oc2cc(O)cc(O)c2c1=O [Compound 20, quercetin 3-methyl ether] | 20.4 ± 1.3 | 70 | – | –
2 | O=c1cc(-c2ccc(O)c(O)c2)oc2cc(O)cc(O)c12 [Compound 19, luteolin] | 59.6 ± 1.32 | 32 | – | –
3 | O=c1c(O)c(-c2ccc(O)c(O)c2)oc2cc(O)cc(O)c12 [Compound 16, quercetin] | – | 82 | – | –
4 | CCCCOC(=O)[C@]1(O)C[C@@H](O)[C@@H](OC(=O)/C=C/c2ccc(O)c(O)c2)[C@H](OC(=O)/C=C/c2ccc(O)c(O)c2)C1 [Compound 29, 4,5-di-O-caffeoylquinic acid n-butyl ester] | 5.2 ± 0.3 | – | – | α-glucosidase inhibitory activity, direct readout from the biochromatogram (α-glucosidase [1]): 57%
5 | O=C(/C=C/c1ccc(O)c(O)c1)O[C@@H]1C[C@](O)(C(=O)O)C[C@@H](OC(=O)/C=C/c2ccc(O)c(O)c2)[C@H]1O [Compound 9, 3,5-di-O-caffeoylquinic acid] | – | – | no or very low | –
6 | O=C(/C=C/c1ccc(O)c(O)c1)O[C@@H]1[C@H](O)C[C@@](O)(C(=O)O)C[C@H]1OC(=O)/C=C/c1ccc(O)c(O)c1 [Compound 11, 4,5-di-O-caffeoylquinic acid] | – | – | no or very low; also recorded: minor | IC50 (α-glucosidase [2]): > 100 µM
7 | O=C(/C=C/c1ccc(O)cc1)OC[C@H]1O[C@@H](Oc2c(-c3ccc(O)cc3)oc3cc(O)cc(O)c3c2=O)[C@H](O)[C@@H](O)[C@@H]1O [Compound 17, trans-tiliroside] | > 210 | 23 | – | Inhibition at 210 μM (yeast α-glucosidase; 210 μM): 4.5%
8 | CCCCOC(=O)[C@]1(O)C[C@@H](OC(=O)/C=C/c2ccc(O)c(O)c2)[C@@H](O)[C@H](OC(=O)/C=C/c2ccc(O)c(O)c2)C1 [Compound 26, 3,5-di-O-caffeoylquinic acid n-butyl ester] | 5.93 ± 0.12 | – | – | α-glucosidase inhibitory activity, direct readout from the biochromatogram (α-glucosidase [1]): 92%
9 | O=C(/C=C/c1ccc(O)c(O)c1)O[C@H]1[C@H](O)C[C@](O)(C(=O)O)C[C@H]1OC(=O)/C=C/c1ccc(O)c(O)c1 [Compound 8, 3,4-di-O-caffeoylquinic acid] | – | – | no or very low | –
10 | O=C(/C=C/c1ccc(O)c(O)c1)OC[C@H]1O[C@@H](Oc2c(-c3ccc(O)c(O)c3)oc3cc(O)cc(O)c3c2=O)[C@H](O)[C@@H](O)[C@@H]1O [Compound 12, quercetin-3-O-(6″-(E)-O-caffeoyl)-β-D-glucoside] | – | – | minor | –
